In the supplement of paper PMC5908809:

Tests used:
[1] = test system: normal primary NK cells, pool 3 (3 donors) (IL-2 2.5 ng/mL); assay: drug sensitivity score (DSS) (DSS units); higher = more sensitive; extreme values may be limits of the assay; conditions: 72 h
SNK-6 (IL-2 2.5 ng/mL) [2] = assay: as above; conditions: 72 h
[3] = test system: normal primary NK cells, pool 2 (3 donors) (IL-2 2.5 ng/mL); assay: as above; conditions: 72 h
NK-92 (IL-2 2.5 ng/mL) [4] = assay: as above; conditions: 72 h
DERL-7 (IL-2 2.5 ng/mL) [5] = assay: as above; conditions: 72 h
IMC-1 (IL-2 20 ng/mL) [6] = assay: as above; conditions: 72 h
NK-YS (IL-2 2.5 ng/mL) [7] = assay: as above; conditions: 72 h
NKL (IL-2 2.5 ng/mL) [8] = assay: as above; conditions: 72 h
[9] = test system: normal primary NK cells, pool 1 (3 donors), resting (IL-2 0 ng/mL); assay: as above; conditions: 72 h
YT (IL-2 2.5 ng/mL) [10] = assay: as above; conditions: 72 h
[11] = test system: normal primary NK cells, pool 1 (3 donors) (IL-2 2.5 ng/mL); assay: as above; conditions: 72 h
KAI3 (IL-2 2.5 ng/mL) [12] = assay: as above; conditions: 72 h
KHYG-1 (IL-2 2.5 ng/mL) [13] = assay: as above; conditions: 72 h
[14] = test system: normal NK cells expanded with K562-aAPC; assay: percent inhibition of viability; higher = more inhibition; conditions: 72 h, IL-2 2.5 ng/mL
Protocol: (§1)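 Drug sensitivity and resistance testing on K562-aAPC-expanded normal NK cells: 5 concentrations (10-fold steps over a 10,000-fold range), 72 h at 37 °C, viability by CellTiter-Glo normalised to DMSO and benzethonium chloride controls; DSS from the fitted curve.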

[15] = test system: normal NK cells expanded with K562-aAPC; assay: drug sensitivity score (DSS) (DSS units); higher = more sensitive; extreme values may be limits of the assay; conditions: 72 h; IL-2 2.5 ng/mL
Protocol: as §1

[16] = test system: normal primary NK cells, pool 3 (3 donors) (IL-2 2.5 ng/mL); assay: percent inhibition of viability; higher = more inhibition; conditions: 72 h
SNK-6 (IL-2 2.5 ng/mL) [17] = assay: as above; conditions: 72 h
[18] = test system: normal primary NK cells, pool 2 (3 donors) (IL-2 2.5 ng/mL); assay: as above; conditions: 72 h
NK-92 (IL-2 2.5 ng/mL) [19] = assay: as above; conditions: 72 h
DERL-7 (IL-2 2.5 ng/mL) [20] = assay: as above; conditions: 72 h
IMC-1 (IL-2 20 ng/mL) [21] = assay: as above; conditions: 72 h
NK-YS (IL-2 2.5 ng/mL) [22] = assay: as above; conditions: 72 h
NKL (IL-2 2.5 ng/mL) [23] = assay: as above; conditions: 72 h
[24] = test system: normal primary NK cells, pool 1 (3 donors), resting (IL-2 0 ng/mL); assay: as above; conditions: 72 h
YT (IL-2 2.5 ng/mL) [25] = assay: as above; conditions: 72 h
[26] = test system: normal primary NK cells, pool 1 (3 donors) (IL-2 2.5 ng/mL); assay: as above; conditions: 72 h
KAI3 (IL-2 2.5 ng/mL) [27] = assay: as above; conditions: 72 h
KHYG-1 (IL-2 2.5 ng/mL) [28] = assay: as above; conditions: 72 h

C=CC(=O)Nc1cc2c(Nc3ccc(F)c(Cl)c3)ncnc2cc1OCCCN1CCOCC1 [Canertinib] (max concentration tested 10000 nM)
Conditions | drug sensitivity score
DERL-7 (IL-2 2.5 ng/mL) [5] | 10.9
IMC-1 (IL-2 20 ng/mL) [6] | 4.78
KAI3 (IL-2 2.5 ng/mL) [12] | 11.2
KHYG-1 (IL-2 2.5 ng/mL) [13] | 6.47
NK-92 (IL-2 2.5 ng/mL) [4] | 10.8
NK-YS (IL-2 2.5 ng/mL) [7] | 8.03
NKL (IL-2 2.5 ng/mL) [8] | 10.3
SNK-6 (IL-2 2.5 ng/mL) [2] | 5.87
YT (IL-2 2.5 ng/mL) [10] | 8.07
[1] | 10.3
[3] | 12.6
[9] | 16.2
[11] | 15.9
[15] | 9.72

percent inhibition of viability [%]
Conditions | 1 nM | 10 nM | 100 nM | 1000 nM | 10000 nM
DERL-7 (IL-2 2.5 ng/mL) [20] | -1.22 | 3.31 | 7.19 | 46.1 | 101
IMC-1 (IL-2 20 ng/mL) [21] | -13.9 | -4.18 | -9.88 | -11.9 | 99.7
KAI3 (IL-2 2.5 ng/mL) [27] | -7.79 | -2.37 | 3.26 | 43.7 | 104
KHYG-1 (IL-2 2.5 ng/mL) [28] | -9.72 | -6.52 | -7.64 | 4.13 | 105
NK-92 (IL-2 2.5 ng/mL) [19] | 3.42 | 2.68 | 6.81 | 39.8 | 104
NK-YS (IL-2 2.5 ng/mL) [22] | -6.82 | -1.19 | -0.2 | 14.6 | 103
NKL (IL-2 2.5 ng/mL) [23] | -12.1 | -11.6 | -5.5 | 34.5 | 106
SNK-6 (IL-2 2.5 ng/mL) [17] | -13 | -20.2 | -15.9 | 2.62 | 99.5
YT (IL-2 2.5 ng/mL) [25] | -5.49 | -3.57 | 3.25 | 14.8 | 103
[14] | -1.69 | -1.95 | -1.57 | 28.3 | 100
[16] | -4.75 | 1.46 | 0.7 | 34.3 | 99.2
[18] | -7.41 | -1.65 | 8.39 | 58.4 | 96.8
[24] | 2.65 | 15.7 | 18.4 | 74.2 | 97
[26] | -5.89 | 6.82 | 13.3 | 76.1 | 99.2

Cc1sc2c(c1C)C(c1ccc(Cl)cc1)=N[C@@H](CC(=O)Nc1ccc(O)cc1)c1nnc(C)n1-2 [OTX015] (max concentration tested 10000 nM)
Conditions | drug sensitivity score
DERL-7 (IL-2 2.5 ng/mL) [5] | 26.7
IMC-1 (IL-2 20 ng/mL) [6] | 13.8
KAI3 (IL-2 2.5 ng/mL) [12] | 8.88
KHYG-1 (IL-2 2.5 ng/mL) [13] | 21.6
NK-92 (IL-2 2.5 ng/mL) [4] | 4.42
NK-YS (IL-2 2.5 ng/mL) [7] | 15.2
NKL (IL-2 2.5 ng/mL) [8] | 18.9
SNK-6 (IL-2 2.5 ng/mL) [2] | 19.3
YT (IL-2 2.5 ng/mL) [10] | 10.8
[1] | 6.65
[3] | 12.1
[9] | 8.82
[11] | 15.7
[15] | 7.54

percent inhibition of viability [%]
Conditions | 1 nM | 10 nM | 100 nM | 1000 nM | 10000 nM
DERL-7 (IL-2 2.5 ng/mL) [20] | 1.92 | 24 | 62 | 95.8 | 100
IMC-1 (IL-2 20 ng/mL) [21] | -7.07 | -8.73 | 1.26 | 73.2 | 97.4
KAI3 (IL-2 2.5 ng/mL) [27] | 3.12 | -12.4 | 6.28 | 43.9 | 56.6
KHYG-1 (IL-2 2.5 ng/mL) [28] | -1.24 | -0.67 | 38.7 | 91 | 106
NK-92 (IL-2 2.5 ng/mL) [19] | -10.2 | -31 | -32.9 | 22.6 | 36.9
NK-YS (IL-2 2.5 ng/mL) [22] | -0.13 | 1.91 | 28.4 | 62.4 | 81.9
NKL (IL-2 2.5 ng/mL) [23] | 6.07 | 1.36 | 45.3 | 69.8 | 73.4
SNK-6 (IL-2 2.5 ng/mL) [17] | 15.4 | 3.9 | 54.7 | 66.5 | 49.5
YT (IL-2 2.5 ng/mL) [25] | -1.39 | -5.05 | 12.7 | 50.1 | 56.8
[14] | -2.53 | -1.01 | 4.29 | 35.6 | 59.9
[16] | -1.79 | 8.04 | 9.85 | 28.3 | 57.8
[18] | -6.93 | 6.42 | 15.3 | 54.1 | 76.5
[24] | -3.45 | 11.8 | 18.6 | 34.9 | 49.6
[26] | -1.64 | 12.5 | 32.6 | 59.5 | 80.1

CN1CC[C@H](c2c(O)cc(O)c3c(=O)cc(-c4ccccc4Cl)oc23)[C@H](O)C1 [Alvocidib] (max concentration tested 10000 nM)
Conditions | drug sensitivity score
DERL-7 (IL-2 2.5 ng/mL) [5] | 21.2
IMC-1 (IL-2 20 ng/mL) [6] | 16.6
KAI3 (IL-2 2.5 ng/mL) [12] | 26.8
KHYG-1 (IL-2 2.5 ng/mL) [13] | 22.6
NK-92 (IL-2 2.5 ng/mL) [4] | 23.4
NK-YS (IL-2 2.5 ng/mL) [7] | 22.1
NKL (IL-2 2.5 ng/mL) [8] | 23
SNK-6 (IL-2 2.5 ng/mL) [2] | 18.3
YT (IL-2 2.5 ng/mL) [10] | 22.6
[1] | 21.3
[3] | 21.1
[9] | 15.8
[11] | 20.4
[15] | 18.4

percent inhibition of viability [%]
Conditions | 1 nM | 10 nM | 100 nM | 1000 nM | 10000 nM
DERL-7 (IL-2 2.5 ng/mL) [20] | -0.06 | -8.43 | 20 | 99.6 | 101
IMC-1 (IL-2 20 ng/mL) [21] | -6.84 | -2.57 | -23.3 | 98.5 | 100
KAI3 (IL-2 2.5 ng/mL) [27] | -3.44 | 8.97 | 69.4 | 99.3 | 104
KHYG-1 (IL-2 2.5 ng/mL) [28] | 3.43 | -0.43 | 31.6 | 103 | 106
NK-92 (IL-2 2.5 ng/mL) [19] | 1.2 | -10.9 | 40.2 | 99.5 | 104
NK-YS (IL-2 2.5 ng/mL) [22] | -0.27 | 3.87 | 33.1 | 98.8 | 103
NKL (IL-2 2.5 ng/mL) [23] | -9.8 | 1.18 | 36 | 101 | 109
SNK-6 (IL-2 2.5 ng/mL) [17] | 16.1 | 27.2 | 40 | 54.8 | 50.7
YT (IL-2 2.5 ng/mL) [25] | 1.4 | 6.09 | 33.3 | 101 | 104
[14] | -1.75 | -1.8 | 2.89 | 100 | 101
[16] | -16.4 | -9.75 | 22.2 | 97.3 | 98.7
[18] | -15.2 | -10.6 | 25.6 | 93.8 | 95.7
[24] | 6.48 | -25.6 | -4.81 | 88.6 | 91.6
[26] | -0.02 | -24.2 | 17.8 | 96.8 | 97.3
